The results in this text go back to patent publication US10668134B2, “Dental pretreatment material and dental tissue regeneration kit” (National Center for Geriatrics and Gerontology, priority 2016, dated 2020).

Assay type in all cases: cell-based
Assay [1] relates to Fifth-passage human periodontal membrane cells. The experiment in a line: mRNA expression of CCL11, CCR3 and GDF11 in human periodontal membrane cells (real-time RT-PCR). The note with it: 5, 10 and 30 ng/μl added; after 32 hours. The procedure: Fifth-passage human periodontal membrane cells were plated in a DMEM containing 10% FBS in collagen-coated 35 mm dishes (IWAKI) at a density of 2×10^4 cells/ml. After 9 hours, an ALK5 inhibitor (SB431542) was added to final concentrations of 5 ng/μl, 10 ng/μl, and 30 ng/μl. Further, a CCR3 antagonist (SB328437) was added to final concentrations of 5 ng/μl, 10 ng/μl, and 30 ng/μl. After 32 hours, mRNA was extracted, and real-time RT-PCR was performed on CCL11, CCR3, and GDF11.
For orientation: In qPCR the cycle at which signal appears reflects the starting amount.

Assay [2] has as its system Eleventh-passage human periodontal ligament cells. Briefly: Senescence marker expression in senescent cells of human periodontal membrane (real-time RT-PCR). As to conditions: 48 hours; for IL1β senescence marker expression / IL6 senescence marker expression / IL8 senescence marker expression / p16 senescence marker expression / p53 senescence marker expression: control = 1. On the procedure: (§1) Eleventh-passage human periodontal ligament cells were plated in DMEM containing 10% FBS in collagen-coated 35 mm dishes (IWAKI) at a density of 2×10^4 cells/ml. After 20 hours, ALK5 inhibitor (SB431542) was added to final concentrations of 5 ng/μl and 10 ng/μl. Further, CCR3 antagonist (SB328437) was added to final concentrations of 5 ng/μl and 10 ng/μl. After 48 hours, mRNA was extracted, and real-time RT-PCR was performed on senescence markers, namely p16, p53, IL6, IL1b, IL8, and TNFα (Table 4).

Assay [3] has the same test system. Briefly: Trophic factor expression in senescent cells of human periodontal membrane (real-time RT-PCR). The note with it: control = 1. On the procedure: as §1
Real-time RT-PCR was performed on trophic factors, namely, VEGF, BDNF, NGF, MCP1 (Table below) using mRNA similar to that described in 2 above.

Assay [4] has as its system HUVECs (Human Umbilical Vein Endothelial Cells). The experiment in a line: Blood vessel-inducing capacity of culture supernatant of senescent dental pulp stem cells on HUVECs on matrigel. As to conditions: after 5 hours, DPSC CM alone 5.9 ± 2.9 mm. On the procedure: (§2) Non-separated 22nd-passage human dental pulp stem cells were brought into a state of 50% confluence. The medium was replaced with a serum-free medium. After 24 hours, the culture conditioned medium was collected. The supernatant was concentrated approximately 40-fold using Amicon Ultra-15 Centrifugal Filter Unit with Ultracel-3 membrane (Millipore, Billerica, Mass.) with 3-kDa molecular cut. Proteinase inhibitors (Halt™ proteinase inhibitor cocktail EDTA-free, Thermo Scientific, Rockford, Ill., USA) was added. The mixture was dispended to be stored at −80° C. Protein content was measured using Bradford Ultra™ (Expedeon, Cambridge, UK).
HUVECs (Human Umbilical Vein Endothelial Cells) (clone 7F3415) (Lonza) were cultured with EGM 2 containing 10% FBS (Lonza). Thereafter, the culture supernatant (5 μg/ml proteins) prepared in 1 above was added to DMEM, as a blood vessel-inducing medium, containing 2% FBS, 5 μg/ml heparin (Lonza), 5 μg/ml ascorbic acid (Lonza), and 5 μg/ml hydrocortisone (Lonza). Further, an ALK5 inhibitor (SB431542, 10 ng/μl) was added to a part of the resultant mixture, and a CCR3 antagonist (SB328437, 5 ng/μl) was added to another part of the resultant mixture. […] Quantitative measurement was conducted, using Suite V3 software (Leica), on the length of a formed cord or tubular lumen.

Assay [5] has as its system TGW cells (human neuroblastoma cell line). Briefly: Neurite outgrowth in TGW cells with culture conditioned medium of senescent dental pulp stem cells. As to conditions: after 48 hours, DPSC CM alone 111.5 ± 14.1 μm. On the procedure: as §2
The culture supernatant (5 μg/ml proteins) prepared in 1 above was added to TGW cells (human neuroblastoma cell line). Further, an ALK5 inhibitor (SB431542, 10 ng/μl) was added to a part of the resultant mixture, and a CCR3 antagonist (SB328437, 5 ng/μl) was added to another part of the resultant mixture. TGW cells to which only the culture supernatant was added was used as a negative control. […] Neurite outgrowth after 48 hours was observed and measured with an inverted microscope (Leica).

On to `NC(=O)c1ccc(-c2nc(-c3ccc4c(c3)OCO4)c(-c3ccccn3)[nH]2)cc1` [ALK5 inhibitor, SB431542], for which, in assay [1], the “increase of expression of GDF11 mRNA” value was determined as 5 times and the “mRNA expression of CCL11” value is listed as “completely suppressed”. The “TNFα mRNA expression” value in assay [2] (5 ng/μl and 10 ng/μl added) is “significantly suppressed”. In assay [2] (5 ng/μl), the “IL1β senescence marker expression” value is recorded as 0.16, the “IL6 senescence marker expression” value amounted to 0.20, the “IL8 senescence marker expression” value is recorded as 0.15 and the “p16 senescence marker expression” value was found to be 0.36. For the same compound, in assay [2] (5 ng/μl), the “p53 senescence marker expression” value came to 0.92. In assay [2] (10 ng/μl), the “IL1β senescence marker expression” value is on record as 0.03, the “IL6 senescence marker expression” value amounted to 0.04, the “IL8 senescence marker expression” value turned out to be 0.04 and the “p16 senescence marker expression” value worked out at 0.10. Also, the “p53 senescence marker expression” value in assay [2] (10 ng/μl) is reported as 0.50. For the same compound, in assay [3] (5 ng/μl), the “BDNF trophic factor expression” value is given as 0.44, the “MCP1 trophic factor expression” value is on record as 1.08, the “NGF trophic factor expression” value is reported as 0.58 and the “VEGF trophic factor expression” value is 0.96. For the same compound, in assay [3] (10 ng/μl), the “BDNF trophic factor expression” value came out at 0.47, the “MCP1 trophic factor expression” value was 0.96, the “NGF trophic factor expression” value worked out at 0.44 and the “VEGF trophic factor expression” value is 1.25. The “Length of New Blood Vessel” value in assay [4] (DPSC CM + 10 ng/μl) worked out at 13.2 ± 2.6 mm. Also, in assay [5] (DPSC CM + 10 ng/μl), the “Neurite Outgrowth Length” value was 2710.5 ± 1223.0 μm.
In the case of `COC(=O)[C@H](Cc1ccc([N+](=O)[O-])cc1)NC(=O)c1cccc2ccccc12` [CCR3 antagonist, SB328437], in assay [1], the “mRNA expression of CCL11” value was “completely suppressed” and the “mRNA expression of CCR3” value is “completely suppressed”. For the same compound, in assay [2] (5 ng/μl), the “IL1β senescence marker expression” value is 0.09, the “IL6 senescence marker expression” value stood at 0.09, the “IL8 senescence marker expression” value is 0.12 and the “p16 senescence marker expression” value came to 0.14. For the same compound, the “p53 senescence marker expression” value in assay [2] (5 ng/μl) is on record as 0.56. For the same compound, in assay [2] (10 ng/μl), the “IL1β senescence marker expression” value is 0.31, the “IL6 senescence marker expression” value was 0.20, the “IL8 senescence marker expression” value was determined as 0.26 and the “p16 senescence marker expression” value worked out at 0.30. Moreover, the “p53 senescence marker expression” value in assay [2] (10 ng/μl) came to 0.92. In addition, in assay [3] (5 ng/μl), the “BDNF trophic factor expression” value was determined as 0.33, the “MCP1 trophic factor expression” value is on record as 2.35, the “NGF trophic factor expression” value is 0.50 and the “VEGF trophic factor expression” value was determined as 0.92. Also, in assay [3] (10 ng/μl), the “BDNF trophic factor expression” value is 0.43, the “MCP1 trophic factor expression” value amounted to 0.54, the “NGF trophic factor expression” value is reported as 0.58 and the “VEGF trophic factor expression” value is given as 0.70. The “Length of New Blood Vessel” value in assay [4] (DPSC CM + 5 ng/μl) is on record as 2.8 ± 0.3 mm. For the same compound, the “Neurite Outgrowth Length” value in assay [5] (DPSC CM + 5 ng/μl) is given as 518.7 ± 126.5 μm.
